Measured values taken from the supplement of paper PMC10307832.

Columns and labels:
Assay in all cases: relative viability (nuclei count vs DMSO), 5 days (fraction); higher = more cells survive
Dabrafenib + Foretinib = compound: CC(C)(C)c1nc(-c2cccc(NS(=O)(=O)c3c(F)cccc3F)c2F)c(-c2ccnc(N)n2)s1 [Dabrafenib] + COc1cc2c(Oc3ccc(NC(=O)C4(C(=O)Nc5ccc(F)cc5)CC4)cc3F)ccnc2cc1OCCCN1CCOCC1 [Foretinib] (partner 0.25 µM)
Summary of the method: (§1)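 Lung cancer cell lines in 1536-well plates were dosed by pin tool the day after seeding, either with one drug alone or with a fixed anchor-drug dose plus five library-drug doses (not always all listed) in √10 steps. After 5 days, cells were fixed and their nuclei stained in one step (final 0.05% Triton X-100, 1% formaldehyde, 1 ug/ml Hoechst), then counted on 4× images. Relative viability is the nuclei count in treated wells divided by that in vehicle wells. Values are medians of duplicate plates.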

Dabrafenib + Decitabine = compound: CC(C)(C)c1nc(-c2cccc(NS(=O)(=O)c3c(F)cccc3F)c2F)c(-c2ccnc(N)n2)s1 [Dabrafenib] + Nc1ncn([C@H]2C[C@H](O)[C@@H](CO)O2)c(=O)n1 [Decitabine] (partner 2 µM)
Summary of the method: as §1

VX-702 + Navitoclax = compound: NC(=O)c1ccc(N(C(N)=O)c2c(F)cccc2F)nc1-c1ccc(F)cc1F [VX-702] + CC1(C)CCC(c2ccc(Cl)cc2)=C(CN2CCN(c3ccc(C(=O)NS(=O)(=O)c4ccc(N[C@H](CCN5CCOCC5)CSc5ccccc5)c(S(=O)(=O)C(F)(F)F)c4)cc3)CC2)C1 [Navitoclax] (partner 0.5 µM)
Summary of the method: as §1

VX-702 + Decitabine = compound: NC(=O)c1ccc(N(C(N)=O)c2c(F)cccc2F)nc1-c1ccc(F)cc1F [VX-702] + Nc1ncn([C@H]2C[C@H](O)[C@@H](CO)O2)c(=O)n1 [Decitabine] (partner 2 µM)
Summary of the method: as §1

Cell Line	relative viability (Dabrafenib + Foretinib; first compound 0.003 µM)	relative viability (Dabrafenib + Foretinib; first compound 0.009487 µM)	relative viability (Dabrafenib + Foretinib; first compound 0.03 µM)	relative viability (Dabrafenib + Foretinib; first compound 0.09487 µM)	relative viability (Dabrafenib + Foretinib; first compound 0.3 µM)	relative viability (Dabrafenib + Decitabine; first compound 0.003 µM)	relative viability (Dabrafenib + Decitabine; first compound 0.009487 µM)	relative viability (Dabrafenib + Decitabine; first compound 0.03 µM)	relative viability (Dabrafenib + Decitabine; first compound 0.09487 µM)	relative viability (Dabrafenib + Decitabine; first compound 0.3 µM)	relative viability (VX-702 + Navitoclax; first compound 0.02 µM)	relative viability (VX-702 + Navitoclax; first compound 0.2 µM)	relative viability (VX-702 + Navitoclax; first compound 0.6325 µM)	relative viability (VX-702 + Navitoclax; first compound 2 µM)	relative viability (VX-702 + Decitabine; first compound 0.02 µM)	relative viability (VX-702 + Decitabine; first compound 0.2 µM)	relative viability (VX-702 + Decitabine; first compound 0.6325 µM)	relative viability (VX-702 + Decitabine; first compound 2 µM)
201T	1.11	1.2	1.12	1.14	1.26	0.853	0.825	0.731	0.846	0.769	1.17	1.22	1.23	1.24	0.86	0.838	0.871	0.886
A549	0.979	0.988	0.911	0.988	0.975		0.277	0.201	0.212	0.0722	1.25	1.23	1.28	1.42	0.303	0.249	0.332	0.177
A-427		1.24	1.14	0.87	1.01	0.569	0.562	0.569	0.551	0.504	0.877	0.919	0.905	0.962	0.623	0.503	0.54	0.542
ABC-1	1.03	1.09	0.866	1.02	1.26		1.07	1.15	1.28	1.54					0.923	1.09	1.09	1.31
BEN		0.699		0.569	0.713		0.865		0.721	0.656	0.0513	0.104	0.0606	0.0662	0.724	0.646	0.694	0.776
CAL-12T	1.07	1.09	1.11	1.11	1.44						1.22	1.18	1.3	1.35				
COR-L23	0.947	0.982	0.873	0.882	0.935	0.475	0.47	0.41	0.432	0.279	0.968	0.979	1.18	1.27	0.518	0.521	0.435	0.525
Calu-6	0.878	0.964	0.84	0.84	0.654						0.927	0.811	1.01	1.01				
EBC-1	0.102	0.0889	0.103	0.0949	0.108						0.441	0.413	0.337	0.389				
HCC-44						1.04	0.851	0.921	0.963	0.872	0.93	0.99	0.881	1.09	1	0.969	1.02	0.924
IA-LM	1.13	1.08	1.08	0.977	1.13						0.928	0.853	0.658	0.905				
LCLC-103H	0.762	0.791	0.737	0.804	0.849	0.724	0.776	0.696	0.658	0.745					0.733	0.735	0.685	0.746
NCI-H358	0.662	0.862	0.815	0.771	0.76	0.198	0.198	0.186	0.195	0.152					0.204	0.333	0.244	0.223
NCI-H522							0.675	0.64	0.755	0.666					0.684	0.775	0.646	0.753
NCI-H650		0.959	0.793	0.734	0.585		0.324	0.33	0.303	0.251					0.385	0.344	0.3	0.324
NCI-H661	1.01	0.983	0.97	1.01	1.01	0.656	0.57	0.575	0.573	0.514					0.567	0.583	0.58	0.591
NCI-H1299	1.05	1.09	1.07	1.03	1.08						1.1	1.08	1.07	1.15				
NCI-H1563	0.856	0.981	0.824	1.04	1.01													
NCI-H1648						0.599	0.463		0.372	0.495					0.443	0.457	0.469	0.481
NCI-H1703	0.354	0.327	0.34	0.334	0.447						1.01	1.35	1.08	1.47				
NCI-H1792							0.651	0.557	0.566	0.287	0.718	0.621	0.695	0.753	0.555	0.614	0.491	0.532
NCI-H2228		0.95	0.797	0.749	0.97						1.29	0.973	0.886	0.952				
NCI-H2342	1.04	1.18	0.954	1.09	1.2	0.748	0.723	0.657	0.781	0.774					0.788	0.821	0.697	0.754
SW 900		0.905	0.788		0.856		0.35		0.486	0.394					0.47	0.375	0.393	0.425
